This is an account of results in US8524911B2, “3-arylamino pyridine derivatives” (Merck Serono SA, priority 2004, dated 2013).

Assay [1] relates to Murine colon C26 cells. Put plainly: Tumor cell proliferation assay (ATP Lite), C26. Conditions: Mus musculus, 96 h, 4 days. Type of assay: cell-based. Summed up: (§1)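 Cells seeded at 1500/well (C26) or 2000/well (A375, MiaPaCa-2) grew overnight, then were exposed to serially diluted compounds (0.25% DMSO final) for 4 days in serum-containing DMEM or RPMI. Viability read by ATPlite luminescence; IC50 is the concentration giving 50% cell death.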

The test system of assay [2] is human pancreatic MiaPaCa-2 cells. The assay can be described thus: Tumor cell proliferation assay (ATP Lite), MiaPaCa-2. Type of assay: cell-based. Conditions: MIA PaCa-2, 96 h, 4 days. As to the method:
Assay 2: Tumor Cell Proliferation Assays (ATP Lite)
Murine colon C26, human melanoma A375 and MeI5 or human pancreatic MiaPaCa-2 cells were plated in 96 well Corning white plates (1500 cells/well for C26, and 2000 cells/well for A375, and MiaPaCa-2) and cultured overnight at 37° C. in 5% CO2. Inhibitors were serially diluted in 100% DMSO and subsequently added to cells to reach a final concentration of 0.25% DMSO. The cells were incubated for 4 days in the presence of test compounds in cell growth media (DMEM with 10% fetal bovine serum, 2 mM glutamine for C26, and MiaPaCa-2, and RPMI with 10% fetal bovine serum, 2 mM glutamine for A375). Cell proliferation was quantitated using the ATP lite cell proliferation kit (Packard). Columns 4-6 show the concentration of compounds required to induce 50% cell death (IC50 in μM) of […]. With “+” meaning 3 μM<IC50≦10 μM and “++” IC50≦3 μM and “n.d.” means not determined. Few compounds were also tested on human melanoma cell MeI5.

Assay [3] concerns the target human MEK1 (Homo sapiens, UniProt Q02750). Put plainly: MEK-1 Enzyme Assay (LANCE-HTRF). The following applies: 100 nM MEK1, 15 μM ATP, 300 nM ERK2, two hours; read-out: MEK inhibition. In kind it is biochemical. Summed up:
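TR-FRET readout of MEK1-catalysed ERK1 phosphorylation; after a 2 h reaction, Eu-anti-PY20 (5 nM) and anti-GST-APC (50 nM) were added in buffer with 50 mM EDTA and 0.05% BSA, then incubated 1 h in the dark.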
In general terms: In TR-FRET formats the signal depends on donor and acceptor labels being close together.

Assay [4] concerns human melanoma A375 cells. The assay can be described thus: Tumor cell proliferation assay (ATP Lite), A375. Conditions: A-375, 96 h, 4 days. In kind it is cell-based. Summed up: as §1

Sequence of human MEK1 (Q02750 whole entry): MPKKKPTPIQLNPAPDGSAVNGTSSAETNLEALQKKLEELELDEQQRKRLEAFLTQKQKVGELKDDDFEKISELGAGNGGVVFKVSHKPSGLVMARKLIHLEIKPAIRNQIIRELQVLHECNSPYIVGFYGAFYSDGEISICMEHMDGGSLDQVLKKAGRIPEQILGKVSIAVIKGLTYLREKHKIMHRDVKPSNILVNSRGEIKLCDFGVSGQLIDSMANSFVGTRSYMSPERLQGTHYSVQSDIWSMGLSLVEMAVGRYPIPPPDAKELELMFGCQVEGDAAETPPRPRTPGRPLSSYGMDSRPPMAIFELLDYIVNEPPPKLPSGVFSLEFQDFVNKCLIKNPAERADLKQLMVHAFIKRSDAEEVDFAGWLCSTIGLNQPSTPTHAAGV

As for `Cc1ccc(NNC(=O)c2ccncc2Nc2ccc(I)cc2F)cc1` [Example 99, 3-[(2-fluoro-4-iodophenyl)amino]-N′-(4-methylphenyl)isonicotino-hydrazide], the IC50 in assay [1] is 3 to 10 µM; in assay [2] it was 3 to 10 µM; in assay [3], less than 1000 nM; in assay [4] it was not above 3 µM.
Take `O=C(NC1CCC1)c1ccncc1Nc1ccc(I)cc1F` [Example 58, N-cyclobutyl-3-[(2-fluoro-4-iodophenyl)amino]isonicotinamide]: the IC50 in assay [1] is not above 3 µM; in assay [2] it was not above 3 µM; in assay [3] it was less than 1000 nM; in assay [4] it was not above 3 µM.
As for `Cc1ccc(CC(=O)NC2CCN(C(=O)c3ccncc3Nc3ccc(I)cc3F)CC2)cc1` [Example 86, N-(1-{3-[(2-fluoro-4-iodophenyl)amino]isonicotinoyl}piperidin-4-yl)-2-(4-methylphenyl)acetamide], the IC50 in assay [1] was 3 to 10 µM; in assay [2], 3 to 10 µM; in assay [3], less than 1000 nM; in assay [4], not above 3 µM.
With `O=C(NOC[C@H](O)CO)c1ccncc1Nc1ccc(I)cc1Cl` [Example 8, 3-[(2-chloro-4-iodophenyl)amino]-N-{[(2R)-2,3-dihydroxypropyl]oxy}-isonicotinamide], the IC50 is not above 3 µM in assay [1], not above 3 µM in assay [2], less than 1000 nM in assay [3] and not above 3 µM in assay [4].
`O=C(NOCc1ccccc1)c1ccncc1Nc1ccc(I)cc1Cl` [Example 81, N-Benzyloxy-3-(2-chloro-4-iodo-phenylamino)-isonicotinamide]: the IC50 in assay [1] was 3 to 10 µM; in assay [2], 3 to 10 µM; in assay [3], less than 1000 nM; in assay [4], not above 3 µM.
In the case of `O=C(NCCO)c1cc(Br)ncc1Nc1ccc(I)cc1F` [Example 74, 2-Bromo-5-(2-fluoro-4-iodo-phenylamino)-N-(2-hydroxy-ethyl)-isonicotinamide], the IC50 was 3 to 10 µM in assay [1], 3 to 10 µM in assay [2], less than 1000 nM in assay [3] and not above 3 µM in assay [4].
On to `CC(=O)NCCNC(=O)c1ccncc1Nc1ccc(I)cc1Cl` [Example 64, N-(2-Acetylamino-ethyl)-3-(2-chloro-4-iodo-phenylamino)-isonicotinamide], for which the IC50 is 3 to 10 µM in assay [1], 3 to 10 µM in assay [2], less than 1000 nM in assay [3] and not above 3 µM in assay [4].
Turning to `O=C(NN1CCOCC1)c1ccncc1Nc1ccc(I)cc1F` [Example 25, 3-[(2-fluoro-4-iodophenyl)amino]-N-morpholin-4-ylisonicotin-amide], the IC50 in assay [1] is not above 3 µM; in assay [2], not above 3 µM; in assay [3], less than 1000 nM; in assay [4], not above 3 µM.
With `NC(=O)c1cc(Br)ncc1Nc1ccc(I)cc1F` [Example 68, 2-Bromo-5-(2-fluoro-4-iodo-phenylamino)-isonicotinamide], the IC50 was not above 3 µM in assay [1], not above 3 µM in assay [2], less than 1000 nM in assay [3] and not above 3 µM in assay [4].
On to `O=C(NCCO)c1ccncc1Nc1ccc(I)cc1F` [Example 15, 3-(2-Fluoro-4-iodo-phenylamino)-N-(2-hydroxy-ethyl)-isonicotinamide], for which the IC50 is not above 3 µM in assay [1], not above 3 µM in assay [2], less than 1000 nM in assay [3] and not above 3 µM in assay [4].
In the case of `CC(C)(C)OC(=O)NNC(=O)c1ccncc1Nc1ccc(I)cc1F` [Example 45, tert-butyl 2-{3-[(2-fluoro-4-iodophenyl)amino]-isonicotinoyl}hydrazine-carboxylate], the IC50 in assay [1] was 3 to 10 µM; in assay [2] it was 3 to 10 µM; in assay [3] it was less than 1000 nM; in assay [4], not above 3 µM.
For the compound `C[C@H](O)CNC(=O)c1ccncc1Nc1ccc(I)cc1F` [Example 41, 3-[(2-fluoro-4-iodophenyl)amino]-N-[(2S)-2-hydroxypropyl]-isonicotinamide], the IC50 in assay [1] was not above 3 µM; in assay [2], not above 3 µM; in assay [3], less than 1000 nM; in assay [4], not above 3 µM.
As to `NC(=O)c1cc[n+]([O-])cc1Nc1ccc(I)cc1F` [Example 97, 3-(2-Fluoro-4-iodo-phenylamino)-1-oxy-isonicotinamide], the IC50 in assay [1] was not above 3 µM; in assay [2] it was not above 3 µM; in assay [3], less than 1000 nM; in assay [4], not above 3 µM.
Turning to `O=C(c1ccncc1Nc1ccc(I)cc1F)N1CCOCC1` [Example 17, [3-(2-Fluoro-4-iodo-phenylamino)-pyridin-4-yl]-morpholin-4-yl-methanone], the IC50 in assay [1] was not above 3 µM; in assay [2], not above 3 µM; in assay [3], less than 1000 nM; in assay [4], not above 3 µM.
With `O=C(NC1CC2CCC1C2)c1ccncc1Nc1ccc(I)cc1F` (stereo not drawn) [Example 82, N-bicyclo[2.2.1]hept-2-yl-3-[(2-fluoro-4-iodophenyl)amino]-isonicotinamide], the IC50 in assay [1] is 3 to 10 µM; in assay [2], 3 to 10 µM; in assay [3] it was less than 1000 nM; in assay [4] it was not above 3 µM.
For the compound `O=C(NCc1ccccn1)c1ccncc1Nc1ccc(I)cc1F` [Example 40, 3-[(2-fluoro-4-iodophenyl)amino]-N-(pyridin-2-ylmethyl)-isonicotinamide], the IC50 in assay [1] is 3 to 10 µM; in assay [2], 3 to 10 µM; in assay [3] it was less than 1000 nM; in assay [4], not above 3 µM.
Regarding `Cc1ccc(CCNC(=O)c2ccncc2Nc2ccc(I)cc2F)cc1` [Example 85, 3-[(2-fluoro-4-iodophenyl)amino]-N-[2-(4-methylphenyl)-ethyl]isonicotinamide], the IC50 in assay [1] is 3 to 10 µM; in assay [2], 3 to 10 µM; in assay [3], less than 1000 nM; in assay [4], not above 3 µM.
As for `O=C(NNc1ccnc2cc(Cl)ccc12)c1ccncc1Nc1ccc(I)cc1F` [Example 56, N′-(7-chloroquinolin-4-yl)-3-[(2-fluoro-4-iodophenyl)amino]-isonicotino-hydrazide], the IC50 is 3 to 10 µM in assay [1], 3 to 10 µM in assay [2], 1000 to 10000 nM in assay [3] and not above 3 µM in assay [4].
`O=C(NNc1nccc(C(F)(F)F)n1)c1ccncc1Nc1ccc(I)cc1F` [Example 50, 3-[(2-fluoro-4-iodophenyl)amino]-N′-[4-(trifluoromethyl)pyrimidin-2-yl]isonicotinohydrazide]: the IC50 was 3 to 10 µM in assay [1], 3 to 10 µM in assay [2], less than 1000 nM in assay [3] and not above 3 µM in assay [4].
In the case of `O=C(NCCc1cccc(Cl)c1)c1ccncc1Nc1ccc(I)cc1F` [Example 29, N-[2-(3-chlorophenyl)ethyl]-3-[(2-fluoro-4-iodophenyl)-amino]isonicotinamide], the IC50 in assay [1] was 3 to 10 µM; in assay [2] it was 3 to 10 µM; in assay [3], less than 1000 nM; in assay [4], not above 3 µM.
For `O=C(NOCc1ccccc1)c1ccncc1Nc1ccc(I)cc1F` [Example 91, N-(benzyloxy)-3-[(2-fluoro-4-iodophenyl)amino]isonicotinamide], the IC50 was 3 to 10 µM in assay [1], 3 to 10 µM in assay [2], less than 1000 nM in assay [3] and not above 3 µM in assay [4].
